Here are results for two substances from patent US20240158442A1, “MULTIFUNCTIONAL POLYPEPTIDE AND APPLICATION THEREOF IN FIELD OF MEDICINES” (Wuhan Innerse Pharmaceutical Inc., priority 2021, published 2024).

For series [1], the system named is rat cerebral ischemic stroke (MCAO, reperfusion 120 min after ischemia). Put plainly: Dose-effect experiment, suture-embolized MCAO ischemia-reperfusion model, TTC staining, cerebral infarction size (Example 6). The settings on record: for Infarct size (infarct tissue weight as percentage of whole brain weight): model control 24.84 ± 3.39. The series is classed as in vivo, Sprague-Dawley (SD) rats.
Source text: Preparation method: an amount of test substance was weighted and fully dissolved using water for injection to the required concentration, and was filtered with a 0.22 μm filter to sterilize.
Animal strain: Sprague-Dawley (SD) rats; grade: SPF grade. Body weight: 200.01-240.03 g when the accommodation started, 213.79-278.79 g when grouping. Age: about 5-7 weeks old during the accommodation, and 6-8 weeks old when grouping. Source: SPF (Beijing) Biotechnology Co., Ltd., Beijing, China.
A. Isolating and exposing blood vessels: the skin of the surgical area was shaved, and the rat was placed under a surgical microscope. The skin of the rat was cut along the midline with ophthalmic scissors, with a cut of about 2 cm length. Through the right neck of the rat, the muscle tissue of the right neck was bluntly isolated and opened with a microforcep to expose the right common carotid artery (CCA), and then isolated upward along the common carotid artery to further expose the external carotid artery (ECA) and internal carotid artery (ICA);
B. The ECA was ligated and the ICA was temporarily clamped; the proximal end and distal end of CCA were threaded separately, the distal end was tied tightly and the proximal end was tied with a loose knot, and a small incision was made between the two threads;
Inserting the suture emboli: A No. 4-0 suture emboli was inserted through the incision of CCA, pushed slowly and gently into the internal carotid artery, and stopped at the artery clamp of ICA, the pre-set thread was tied tightly (to avoid severe bleeding when pushing the suture emboli), then the artery clamp that blocked the blood flow of ICA was removed, and the suture emboli was immediately pushed into ICA until entering into the cranium. […]
D. Fixing the suture emboli and suturing the incision: if one felt slight resistance when the suture emboli was inserted about 18 mm depth from the bifurcation of the common carotid artery, it means that the tip of the suture emboli has entered into the cerebral anterior artery (ACA), and the side wall of the suture emboli has blocked the opening of the middle cerebral artery; at the moment, the insertion was terminated and the time was recorded. […]

In series [2] the test system is patients with acute ischemic stroke (AIS) undergoing endovascular thrombectomy. The note with it: intravenous injection 2.6 mg/kg; cited from earlier work.
Series [3] has as its system experimental cerebral ischemia-reperfusion in animals (cynomolgus monkeys). The note with it: preclinical ischemic stroke model; cited from earlier work.
In series [4] the test system is rats with cerebral ischemia (middle cerebral artery occlusion, MCAO). Description: MCAO rat model of cerebral ischemia, behavioral observation and scoring (Example 5). The class given is in vivo, SD rats. The note with it: 3 mg/kg via tail vein; for behavioral score, rat No. 1: individual animal No. 1; for behavioral score, rat No. 2: individual animal No. 2; for behavioral score, rat No. 3: individual animal No. 3; for behavioral score, rat No. 4: individual animal No. 4; for behavioral score, rat No. 5: individual animal No. 5; for behavioral score, rat No. 6: individual animal No. 6; for behavioral score, mean value: scored 22-24 h after suturation, scale 0-5, 6 rats per group. The method, then: (§1) In order to determine the application of the synthetic peptides provided by the present invention in neurological diseases, the present invention uses SD rats as experimental objects, and performs middle cerebral artery occlusion method (MCAO) to prepare rat model of cerebral ischemia. These rats were injected drugs intravenously 1-2 hours after ischemia, and a behavioral observation and scoring was conducted for each animal after 22-24 hours. After the behavioral observation, the experimental rats were euthanized and their brains were removed, cut to sections and stained with TTC for quantitative analysis, and the cerebral infarct volume % was calculated.
(§2) The experimental SD rat was weighed and anesthetized with chloral hydrate. After anesthesia, the limbs of the rat were fixed, and the rat was placed in a supine position, connected to the small-animal monitor, and monitored for important physiological parameters such as body temperature, blood pressure and heart rate, etc. The rat's neck was shaved and disinfected with 75% alcohol cotton ball. A middle incision of about 2 cm length was then made on the neck of the experimental rat, and the submandibular gland of the rat was bluntly separated while avoiding damage to the gland. Then, the left common carotid artery (CCA) of the experimental rat was bluntly separated, and the internal carotid artery (ICA) and external carotid artery (ECA) were carefully separated upward along the CCA. Any damage to vagus nerves was avoided during the separation. The CCA and ICA were clamped respectively with two artery clamps, and the distal end of the ECA was cut off and a silicone suture emboli was inserted into the ECA “port” to the ICA artery clamp, then the artery clamp was quickly loosened and the tip of the suture emboli was put in through the artery clamp quickly before clamping the ICA again. This step was repeated and the suture emboli was put in further until the black mark of the suture emboli reached the bifurcation of the ECA and ICA, and the tip of the suture emboli blocked the middle cerebral artery and then the ECA “port” and the suture emboli was tied tightly using a thread in order to prevent the “escape” of suture emboli or bleeding after the rat waked up. The artery clamps on the CCA and ICA were then loosed and removed to restore the tissue to its original position, and an appropriate amount of penicillin was applied to prevent wound infection. A medical suture needle with thread was used to suture, and the wound was disinfected using povidone-iodine again after the suturation. The experimental rats were monitored with the small-animal monitor to evaluate if their physiological parameters were normal, and the rats were placed on a small-animal electric blanket to keep their body temperature until they waked up, and placed in animal cages.
(§3) The drug to be tested was prepared as 3 mg/mL solution. The drug was dosed via tail vein 1-2 h after the suturation.
(§4) During the drug administration, the rat was fastened with a fastening device, and the drug to be tested was injected into the tail vein of the rat at 3 mg/kg using 1 mL syringe, the drug was injected slowly to reduce the cardiopulmonary load of the experimental rat.
(§5) The animals were divided into different test groups, with 6 rats for each group. Model group: After the suturation, an equal amount of normal saline was given via tail vein; Drug groups S1 (NA1), S4 (β-Ala-His-Lys-Ala-Pro) and S5 (Pro-Ala-Lys-β-Ala-His): administered via tail vein after the suturation;
The behavioral observation and scoring were performed on each animal 22-24h after the suturation.

For series [5] the test system is unchanged. Put plainly: MCAO rat model of cerebral ischemia, TTC staining, cerebral infarct volume (Example 5). The class given is in vivo, SD rats. The settings on record: for infarct volume (TTC quantification), mean value: 3 mg/kg via tail vein 1-2 h after suturation, TTC after 22-24 h, 6 rats per group; for infarct volume (TTC quantification), rat No. 1: individual animal No. 1; for infarct volume (TTC quantification), rat No. 2: individual animal No. 2; for infarct volume (TTC quantification), rat No. 3: individual animal No. 3; for infarct volume (TTC quantification), rat No. 4: individual animal No. 4; for infarct volume (TTC quantification), rat No. 5: individual animal No. 5; for infarct volume (TTC quantification), rat No. 6: individual animal No. 6. The method, then: as §1
• Small-animal monitor: VT200 from Rongxianda Technology Co., Ltd., Shenzhen, China. • SD rats: 180-200 g, from China National Institutes for Food and Drug Identification. • Suture emboli: Maiyue Bio (M8507). • TTC staining solution: Yuanye Bio (R24053).
as §2, §3, §4, §5
After the behavioral observation, experimental rats were euthanized and their brains were removed. […]

Series [6] is described as follows: Dose-effect experiment, body weight of MCAO model animals. The note with it: 3 mg/kg i.v.; D 2 = 1 day after surgery.
Procedure: Measurement time: the body weight was measured at least twice during the accommodation, and each batch of rats were weighed once on the day before the surgery and on the day of dissection to calculate the amount of drug administered and the anesthetic applied; the body weight was measured twice a week after the surgery.
The effect of test substance on the weight of model animals: cerebral ischemia-reperfusion is an acute injury model, wherein the weight of experimental animals will drop dramatically after MCAO modeling. Thus, the weight of experimental animals is one of the most basic sensitive parameters to comprehensively reflect the health status of animals.
In series [7] the test system is rat cerebral ischemic stroke (MCAO, reperfusion 120 min after ischemia). Description: Dose-effect experiment, MCAO ischemia-reperfusion model, rat neurological function score (NSS). The series is classed as in vivo, Sprague-Dawley (SD) rats. The note with it: 3 mg/kg i.v., D 2 = 1 day after surgery, model control 8.62 ± 0.84. The method, then: The establishment of rat model: the rats were placed in an anesthesia induction box filled with 3.0% isoflurane for anesthesia induction. Anesthesia-induced animals were transferred to the operating table, and anesthesia was maintained with 2.0%˜2.5% isoflurane at 200 mL/min using a small-animal gas anesthesia machine, and the eyelid reflex and pain response of the rats were observed. The surgery can be started only after the eyelid reflex response and the pain response on limbs and tail disappeared. […]
• Measurement time: 24 hours before and after modeling; • Animals measured: all the surviving experimental animals planned to be measured; • Measurement method: a motor function test, sensory test, balance test, and reflex and abnormal behavior test were performed on animals, according to the rat neurological function score scale (NSS) for details.
The main purpose of clinical treatment for cerebral infarction is to restore the patient's neurological function as much as possible and to improve the quality of life after stroke. In this experiment, the animals were evaluated with Bederson scoring 1 hour after ischemia to evaluate the ischemia in animals. One day after modeling, the neurobehavioral function of animals was evaluated with NSS scoring scale in order to evaluate the effect of test substance in improving the neurological function of animals.

[8] abbreviates: 3 mg/kg i.v. once within 10 min after reperfusion, TTC 24 h after treatment.
Where [9] appears, read: listed as β-Ala-His-Lys-Ala-Pro.

Square brackets hold non-standard residues; d marks the D form. Ends that are not written are not given here. βAla = NCCC(=O)O

“YGRKKRRQRRRKLSSIESDV [Example S1, nerinetide]”: in series [1] (setting [8]), the Infarct weight stood at 0.24 ± 0.02 g and the “Infarct size (infarct tissue weight as percentage of whole brain weight)” value was determined as 16.74±3.14%. Also, in series [1] (3 mg/kg i.v. once within 10 min after reperfusion, TTC 24 h after treatment, listed as Positive drug), the “Infarct size (infarct tissue weight as percentage of whole brain weight)” value amounted to 16.74 ± 3.14 %. In addition, in series [1] (3 mg/kg i.v., calculated from infarct size versus model control group), the “Inhibition rate of cerebral infarction” value is 33%. Further, the “patient's prognosis” value in series [2] is “improved patient's prognosis”. Moreover, in series [3], the functional prognosis result is on record as “improve the functional prognosis” and the “infarct size of experimental cerebral ischemia-reperfusion” value is on record as “reduce the infarct size”. Moreover, in series [4], the “behavioral score, rat No. 1” value was determined as 2 points; the “behavioral score, rat No. 2” value is listed as 2 points; the “behavioral score, rat No. 3” value stood at 2 points; the “behavioral score, rat No. 4” value worked out at 2 points. In series [4], the “behavioral score, rat No. 5” value is 1 points; the “behavioral score, rat No. 6” value stood at 3 points; the “behavioral score, mean value” is given as 2.0 points. Besides, the “behavioral score, mean value” in series [4] (listed as NA1) came to 2.0±0.6 points. Moreover, in series [5], the “infarct volume (TTC quantification), mean value” (“infarct volume … mean value” for short) came to 0.157. Besides, in series [5] (listed as NA1), the “infarct volume … mean value” stood at 0.157±0.040. In series [5] (3 mg/kg via tail vein), the “infarct volume (TTC quantification), rat No. 1” value was determined as 0.187; the “infarct volume (TTC quantification), rat No. 2” value is 0.218; the “infarct volume (TTC quantification), rat No. 3” value is 0.153; the “infarct volume (TTC quantification), rat No. 4” value stood at 0.145. For the same substance, in series [5] (3 mg/kg via tail vein), the “infarct volume (TTC quantification), rat No. 5” value was determined as 0.107 and the “infarct volume (TTC quantification), rat No. 6” value is on record as 0.134. For the same substance, the “Weight D 2” value in series [6] amounted to 203.7 ± 10.94 g. Moreover, in series [7] (listed as Positive drug), the “NSS score D 2” value came to 8.00 ± 0.76. The “NSS score D 2” value in series [7] (listed as positive control) came out at 8.00±0.76.

For the substance “β-Ala-His-Lys-Ala-Pro ([βAla]HKAP) [Example S4]”, the “behavioral score, statistical comparison with S1” value in series [4] (compared with S1 (NA1) 3 mg/kg) is given as “not statistically different from S1”. For the same substance, in series [4], the “behavioral score, rat No. 1” value is given as 3 points; the “behavioral score, rat No. 2” value was 2 points; the “behavioral score, rat No. 3” value came to 3 points; the “behavioral score, rat No. 4” value is given as 2 points. In series [4], the “behavioral score, rat No. 5” value stood at 1 points; the “behavioral score, rat No. 6” value came to 1 points; the “behavioral score, mean value” was found to be 2.0 points. For the same substance, the “behavioral score, mean value” in series [4] (setting [9]) is reported as 2.0±0.9 points. Moreover, the “infarct volume … mean value” in series [5] came to 0.155. Moreover, in series [5] (setting [9]), the “infarct volume … mean value” is recorded as 0.155±0.044. The “infarct volume, statistical comparison with S1” value in series [5] (3 mg/kg via tail vein, compared with S1 (NA1) 3 mg/kg) was “not statistically different from S1”. In series [5] (3 mg/kg via tail vein), the “infarct volume (TTC quantification), rat No. 1” value amounted to 0.233; the “infarct volume (TTC quantification), rat No. 2” value turned out to be 0.157; the “infarct volume (TTC quantification), rat No. 3” value is 0.137; the “infarct volume (TTC quantification), rat No. 4” value came out at 0.171. Also, in series [5] (3 mg/kg via tail vein), the “infarct volume (TTC quantification), rat No. 5” value is on record as 0.118 and the “infarct volume (TTC quantification), rat No. 6” value stood at 0.116.
